From patent EP2818472A1, “Imidazo[4,5-c]pyridine and pyrrolo[3,2-c]pyridine compounds as G-protein-coupled receptor kinase 5 (GRK5) modulators” (Max-Planck-Gesellschaft zur Förderung der Wissenschaften …, priority 2013, dated 2014)

These molecules were tested on beta-TC6 cells (assay: Insulin HTRF assay (relative activity Ar) in beta-TC6 cells). Details: Mus musculus, Beta-TC6, 4 h, insulin HTRF, supernatant of beta-TC6 cells, incubation with test compound at 37°C for 2, 3, 4h; read-out: Ar (relative activity).
Type: cell-based, mouse
Method in brief: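 beta-TC6 cells (15k/well, seeded 24 or 48 h) washed, then exposed to compound in induction buffer (0.5% DMSO final) for 2, 3 or 4 h at 37°C.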

`Cc1ccc(-c2nc3ccncc3[nH]2)cc1` [Compound 774, 2-(p-tolyl)-3H-imidazo[4,5-c]pyridine] and `Fc1ccc(-c2nc3ccncc3[nH]2)cc1` [Compound 775, 2-(4-fluorophenyl)-3H-imidazo[4,5-c]pyridine] fall in the same range of Emax: 0 to 30% for the first, 0 to 30% for the second.

`Cn1nc(C(C)(C)C)cc1Nc1cc2c(cn1)ncn2Cc1ccco1` [Compound 776, N-(5-tert-butyl-2-methyl-pyrazol-3-yl)-1-(2-furylmethyl)imidazo[4,5-c]pyridin-6-amine] and `CNc1nc2cnc(Nc3cc(C(F)(F)F)ccc3F)cc2n1Cc1ccco1` [Compound 777, N6-[2-fluoro-5-(trifluoromethyl)phenyl]-1-(2-furylmethyl)-N2-methyl-imidazo[4,5-c]pyridine-2,6-diamine] fall in the same range of Emax: 0 to 30% for the first, 0 to 30% for the second.

First: Cn1c(-c2ccc3ccccc3n2)nc2cnccc21 [Compound 778, 2-(1-methylimidazo[4,5-c]pyridin-2-yl)quinoline]
Second: Cn1c(NCC2CCCO2)nc2cnc(-c3ccc4ccccc4c3)cc21 (centres unmarked) [Compound 850, 1-methyl-6-(2-naphthyl)-N-(tetrahydrofuran-2-ylmethyl)imidazo[4,5-c]pyridin-2-amine]
The Emax of the first is lower: 0 to 30% for the first, 30 to 50% for the second.

Compared with `CNc1nc2cnc(-c3ccccc3OC)cc2n1-c1ccccc1` [Compound 782, 6-(2-methoxyphenyl)-N-methyl-1-phenyl-imidazo[4,5-c]pyridin-2-amine], `CNc1nc2cnc(-c3cccnc3OC)cc2n1-c1ccccc1` [Compound 788, 6-(2-methoxy-3-pyridyl)-N-methyl-1-phenyl-imidazo[4,5-c]pyridin-2-amine] is higher in Emax: 0 to 30% for the first, 30 to 50% for the second.

`CNc1nc2cnc(-c3cccc(N(C)C)c3)cc2n1-c1ccccc1` [Compound 783, 6-[3-(dimethylamino)phenyl]-N-methyl-1-phenyl-imidazo[4,5-c]pyridin-2-amine] and `CNc1nc2cnc(-c3ccc(F)c(Cl)c3)cc2n1-c1ccccc1` [Compound 784, 6-(3-chloro-4-fluoro-phenyl)-N-methyl-1-phenyl-imidazo[4,5-c]pyridin-2-amine] fall in the same range of Emax: 0 to 30% for the first, 0 to 30% for the second.

First: CNc1nc2cnc(-c3ccc(C(N)=O)cc3)cc2n1-c1ccccc1 [Compound 786, 4-[2-(methylamino)-1-phenyl-imidazo[4,5-c]pyridin-6-yl]benzamide]
Second: CNc1nc2cnc(-c3ccc(Cl)cc3)cc2n1Cc1ccccc1 [Compound 792, 1-benzyl-6-(4-chlorophenyl)-N-methyl-imidazo[4,5-c]pyridin-2-amine]
The Emax of the first is lower: 0 to 30% for the first, 30 to 50% for the second.

Compared with `CNc1nc2cnc(-c3ccc4c(c3)OCO4)cc2n1Cc1ccccc1` [Compound 791, 6-(1,3-benzodioxol-5-yl)-1-benzyl-N-methyl-imidazo[4,5-c]pyridin-2-amine], `CNc1nc2cnc(-c3ccc(O)c(OC)c3)cc2n1Cc1ccccc1` [Compound 797, 4-[1-benzyl-2-(methylamino)imidazo[4,5-c]pyridin-6-yl]-2-methoxy-phenol] is higher in Emax: 0 to 30% for the first, 30 to 50% for the second.

`CNc1nc2cnc(-c3cccc(C(=O)NCCN(C)C)c3)cc2n1Cc1ccccc1` [Compound 793, 3-[1-benzyl-2-(methylamino)imidazo[4,5-c]pyridin-6-yl]-N-(2-dimethylaminoethyl)benzamide] and `CNc1nc2cnc(-c3cccc(C(=O)NCCO)c3)cc2n1Cc1ccccc1` [Compound 794, 3-[1-benzyl-2-(methylamino)imidazo[4,5-c]pyridin-6-yl]-N-(2-hydroxyethyl)benzamide] fall in the same range of Emax: 0 to 30% for the first, 0 to 30% for the second.

Compared with `CNc1nc2cnc(-c3ccoc3)cc2n1Cc1ccccc1` [Compound 798, 1-benzyl-6-(3-furyl)-N-methyl-imidazo[4,5-c]pyridin-2-amine], `CNc1nc2cnc(-c3ccc(NC(C)=O)cc3)cc2n1Cc1ccccc1` [Compound 799, N-[4-[1-benzyl-2-(methylamino)imidazo[4,5-c]pyridin-6-yl]phenyl]acetamide] is lower in Emax: 30 to 50% for the first, 0 to 30% for the second.

Compared with `Cc1cccc(CNc2nc3cnc(-c4ccc(N(C)C)cc4)cc3n2C)c1` [Compound 802, 6-(4-dimethylaminophenyl)-1-methyl-N-(m-tolylmethyl)imidazo[4,5-c]pyridin-2-amine], `COc1ccc(-c2cc3c(cn2)nc(NCc2cccc(C)c2)n3C)cc1` [Compound 807, 6-(4-methoxyphenyl)-1-methyl-N-(m-tolylmethyl)imidazo[4,5-c]pyridin-2-amine] is lower in Emax: 50 to 100% for the first, 30 to 50% for the second.

`Cc1cccc(CNc2nc3cnc(-c4ccc(S(C)(=O)=O)cc4)cc3n2C)c1` [Compound 806, 1-methyl-6-(4-methylsulfonylphenyl)-N-(m-tolylmethyl)imidazo[4,5-c]pyridin-2-amine] and `Cc1cccc(CNc2nc3cnc(-c4ccc(N)nc4)cc3n2C)c1` [Compound 811, 6-(6-amino-3-pyridyl)-1-methyl-N-(m-tolylmethyl)imidazo[4,5-c]pyridin-2-amine] fall in the same range of Emax: 30 to 50% for the first, 30 to 50% for the second.

First: COc1cc(-c2cc3c(cn2)nc(NCc2cccc(C)c2)n3C)ccc1O [Compound 808, 2-methoxy-4-[1-methyl-2-(m-tolylmethylamino)imidazo[4,5-c]pyridin-6-yl]phenol]
Second: COc1ccc(-c2cc3c(cn2)nc(NCc2cccnc2)n3C)cc1OC [Compound 862, 6-(3,4-dimethoxyphenyl)-1-methyl-N-(3-pyridylmethyl)imidazo[4,5-c]pyridin-2-amine]
The Emax of the first is higher: 30 to 50% for the first, 0 to 30% for the second.

First: COc1cc(Nc2nc3cnc(-c4cccc(F)c4)cc3n2C)cc(OC)c1OC [Compound 814, 6-(3-fluorophenyl)-1-methyl-N-(3,4,5-trimethoxyphenyl)imidazo[4,5-c]pyridin-2-amine]
Second: COc1cccc(-c2cc3c(cn2)nc(NCCc2cc(OC)ccc2OC)n3C)c1 [Compound 823, N-[2-(2,5-dimethoxyphenyl)ethyl]-6-(3-methoxyphenyl)-1-methyl-imidazo[4,5-c]pyridin-2-amine]
The Emax of the first is lower: 0 to 30% for the first, 30 to 50% for the second.

First: COc1ccc(OC)c(CCNc2nc3cnc(-c4ccc5c(c4)OCO5)cc3n2C)c1 [Compound 816, 6-(1,3-benzodioxol-5-yl)-N-[2-(2,5-dimethoxyphenyl)ethyl]-1-methyl-imidazo[4,5-c]pyridin-2-amine]
Second: COc1ccc(OC)c(CCNc2nc3cnc(-c4cccc(O)c4)cc3n2C)c1 [Compound 820, 3-[2-[2-(2,5-dimethoxyphenyl)ethylamino]-1-methyl-imidazo[4,5-c]pyridin-6-yl]phenol]
The Emax of the first is lower: 0 to 30% for the first, 30 to 50% for the second.

`COc1ccc(OC)c(CCNc2nc3cnc(-c4cccc(C(N)=O)c4)cc3n2C)c1` [Compound 822, 3-[2-[2-(2,5-dimethoxyphenyl)ethylamino]-1-methyl-imidazo[4,5-c]pyridin-6-yl]benzamide] and `COc1ccc(OC)c(CCNc2nc3cnc(-c4cccc(NS(C)(=O)=O)c4)cc3n2C)c1` [Compound 825, N-[3-[2-[2-(2,5-dimethoxyphenyl)ethylamino]-1-methyl-imidazo[4,5-c]pyridin-6-yl]phenyl]methanesulfonamide] fall in the same range of Emax: 0 to 30% for the first, 0 to 30% for the second.

`Cn1c(NCC2CC2)nc2cnc(-c3ccccc3)cc21` [Compound 826, N-(cyclopropylmethyl)-1-methyl-6-phenyl-imidazo[4,5-c]pyridin-2-amine] and `CN(C)c1cccc(-c2cc3c(cn2)nc(NCC2CC2)n3C)c1` [Compound 828, N-(cyclopropylmethyl)-6-[3-(dimethylamino)phenyl]-1-methyl-imidazo[4,5-c]pyridin-2-amine] fall in the same range of Emax: 30 to 50% for the first, 30 to 50% for the second.

First: CNc1nc2cnc(-c3ccc(CO)cc3)cc2n1C [Compound 830, [4-[1-methyl-2-(methylamino)imidazo[4,5-c]pyridin-6-yl]phenyl]methanol]
Second: CNc1nc2cnc(-c3cccc(C(F)(F)F)c3)cc2n1C [Compound 831, N,1-dimethyl-6-[3-(trifluoromethyl)phenyl]imidazo[4,5-c]pyridin-2-amine]
The Emax of the first is higher: 30 to 50% for the first, 0 to 30% for the second.

`Cn1c(NCc2ccccc2)nc2cnc(-c3ccccc3)cc21` [Compound 836, N-benzyl-1-methyl-6-phenyl-imidazo[4,5-c]pyridin-2-amine] and `COc1ccc(-c2cc3c(cn2)nc(NCc2ccccc2)n3C)cc1` [Compound 839, N-benzyl-6-(4-methoxyphenyl)-1-methyl-imidazo[4,5-c]pyridin-2-amine] fall in the same range of Emax: 30 to 50% for the first, 30 to 50% for the second.

`Cn1c(NCc2ccccc2)nc2cnc(-c3cccs3)cc21` [Compound 841, N-benzyl-1-methyl-6-(2-thienyl)imidazo[4,5-c]pyridin-2-amine] and `Cn1c(NCC2CCCO2)nc2cnc(-c3cccs3)cc21` (centres unmarked) [Compound 852, 1-methyl-N-(tetrahydrofuran-2-ylmethyl)-6-(2-thienyl)imidazo[4,5-c]pyridin-2-amine] fall in the same range of Emax: 30 to 50% for the first, 30 to 50% for the second.

`COc1ccc(-c2cc3c(cn2)nc(Nc2ccccc2)n3C)cc1` [Compound 847, 6-(4-methoxyphenyl)-1-methyl-N-phenyl-imidazo[4,5-c]pyridin-2-amine] and `Cn1c(NCC2CCCO2)nc2cnc(-c3cccc(Oc4ccccc4)c3)cc21` (centres unmarked) [Compound 851, 1-methyl-6-(3-phenoxyphenyl)-N-(tetrahydrofuran-2-ylmethyl)imidazo[4,5-c]pyridin-2-amine] fall in the same range of Emax: 30 to 50% for the first, 30 to 50% for the second.

`COCCNc1nc2cnc(-c3cccc(OC(F)(F)F)c3)cc2n1C` [Compound 855, N-(2-methoxyethyl)-1-methyl-6-[3-(trifluoromethoxy)phenyl]imidazo[4,5-c]pyridin-2-amine] and `COCCNc1nc2cnc(-c3ccc(OC)cc3C)cc2n1C` [Compound 859, N-(2-methoxyethyl)-6-(4-methoxy-2-methyl-phenyl)-1-methyl-imidazo[4,5-c]pyridin-2-amine] fall in the same range of Emax: 30 to 50% for the first, 30 to 50% for the second.

Same assay, conditions: insulin HTRF, supernatant of beta-TC6 cells, incubation with test compound at 37°C for 2, 3, 4h

In the case of `CNc1nc2cnc(-c3ccc(N(C)C)cc3)cc2n1-c1ccccc1` [Compound 781, 6-(4-dimethylaminophenyl)-N-methyl-1-phenyl-imidazo[4,5-c]pyridin-2-amine], the “Ar (relative activity)” value is reported as “+++ (50 % ≤ Ar < 100 %)”.
With `CNc1nc2cnc(-c3ccc(CO)cc3)cc2n1-c1ccccc1` [Compound 785, [4-[2-(methylamino)-1-phenyl-imidazo[4,5-c]pyridin-6-yl]phenyl]methanol] the “Ar (relative activity)” value was “+ (0 % < Ar < 30 %)”.
